Laboratory results from ChEMBL document CHEMBL1201862, “PubChem BioAssay data set” (2004).
The source made the active and inactive calls.

Experiments:
[1] = target: Peroxisome proliferator-activated receptor gamma/Nuclear receptor coactivator 3 (Homo sapiens, UniProt P37231); assay type: functional;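 also: agonist potency for raising coactivator recruitment to the receptor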
[2] = target: Peroxisome proliferator-activated receptor gamma/Nuclear receptor coactivator 2 (Homo sapiens, UniProt P37231); assay type: functional;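 also: agonist potency for raising coactivator recruitment to the receptor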
[3] = target: Peroxisome proliferator-activated receptor gamma/Nuclear receptor coactivator 1 (Homo sapiens, UniProt P37231); assay type: functional;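 also: agonist potency as compounds enhance coactivator SRC-1 recruitment to PPARgamma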
[4] = HIV-1 Vif–A3G interaction blockers – biochemical, TR-FRET, GST-Vif 1-94, biotin-A3G peptide, dose response retest, primary screen (AID 1117319); assay type: functional;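 also: TR-FRET signal of purified GST-Vif binding a biotinylated A3G peptide; inhibitors lower the FRET signal by blocking Vif and A3G binding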
[5] = target: T1, Protein Tat (Human immunodeficiency virus type 1 group M subtype B (isolate HXB2)(HIV-1), UniProt P04608); assay type: functional;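 also: tat binding to TAR RNA read out by fluorescence polarization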
T1 sequence (P04608 whole entry): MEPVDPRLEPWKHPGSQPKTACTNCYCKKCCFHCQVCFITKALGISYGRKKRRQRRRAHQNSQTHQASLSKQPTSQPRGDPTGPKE

[6] = target: T2, Estrogen receptor (Homo sapiens, UniProt P03372); test: ERα coactivator recruitment enhancers – biochemical, TR-FRET, ERα LBD, dose response (AID 737)
T2 sequence (P03372 whole entry): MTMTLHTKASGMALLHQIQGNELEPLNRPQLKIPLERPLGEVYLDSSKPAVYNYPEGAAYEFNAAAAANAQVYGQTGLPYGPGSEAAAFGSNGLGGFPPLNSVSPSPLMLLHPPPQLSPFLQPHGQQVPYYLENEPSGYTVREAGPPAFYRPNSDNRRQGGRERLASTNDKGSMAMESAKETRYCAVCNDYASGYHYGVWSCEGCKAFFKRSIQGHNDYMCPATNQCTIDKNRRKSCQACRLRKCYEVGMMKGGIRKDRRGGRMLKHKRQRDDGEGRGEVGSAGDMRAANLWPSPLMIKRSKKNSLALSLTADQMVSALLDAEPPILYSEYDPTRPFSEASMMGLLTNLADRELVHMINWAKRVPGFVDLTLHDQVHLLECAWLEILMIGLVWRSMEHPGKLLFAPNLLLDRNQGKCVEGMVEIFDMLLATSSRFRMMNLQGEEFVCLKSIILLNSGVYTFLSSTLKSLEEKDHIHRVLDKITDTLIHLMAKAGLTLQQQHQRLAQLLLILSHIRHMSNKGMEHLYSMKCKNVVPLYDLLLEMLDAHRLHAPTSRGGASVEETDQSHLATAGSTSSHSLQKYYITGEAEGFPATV

[7] = target: FAD-linked sulfhydryl oxidase ALR (Homo sapiens, UniProt P55789); test: ALR-catalysed DTT oxidation blockers – biochemical, H2O2 detection, luminescence, cherry-pick, dose response (AID 493248)
[8] = target: T3, Polyadenylate-binding protein 1 (Homo sapiens, UniProt P11940); test: MLLE binding blockers, Cy5 peptide tracer – biochemical, fluorescence polarization, Cy5-PAM2 peptide, secondary, miRNA deadenylation inhibitor project, dose response (AID 602260); assay type: functional; conditions: read-out: IC50_Mean
[9] = viability of HCT116 lacking mutant beta-catenin – cell-based, human colon tumor, dose response (AID 1045); assay type: functional;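 also: HCT116 colon tumor cells with beta catenin knocked out; cells exposed to compound for 60 hours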
[10] = viability loss in THP-1 monocytes – THP-1 cells, cytotoxicity control for Vif-APOBEC3G degradation inhibitor project, dose response (AID 1117359); assay type: functional; conditions: THP-1
[11] = target: T3, Polyadenylate-binding protein 1; test: MLLE domain peptide-binding blockers, IC50 – biochemical, fluorescence polarization, FITC-PAM2 peptide, dose response (AID 602259); assay type: functional; conditions: read-out: IC50_Mean
[12] = target: T4, Replicative DNA helicase DnaB (Mycobacterium tuberculosis, UniProt P9WMR3); test: DnaB intein splicing inhibitors, dose response, biochemical, cell-free fluorescence (AID 449749); assay type: functional
T4 sequence (P9WMR3 whole entry): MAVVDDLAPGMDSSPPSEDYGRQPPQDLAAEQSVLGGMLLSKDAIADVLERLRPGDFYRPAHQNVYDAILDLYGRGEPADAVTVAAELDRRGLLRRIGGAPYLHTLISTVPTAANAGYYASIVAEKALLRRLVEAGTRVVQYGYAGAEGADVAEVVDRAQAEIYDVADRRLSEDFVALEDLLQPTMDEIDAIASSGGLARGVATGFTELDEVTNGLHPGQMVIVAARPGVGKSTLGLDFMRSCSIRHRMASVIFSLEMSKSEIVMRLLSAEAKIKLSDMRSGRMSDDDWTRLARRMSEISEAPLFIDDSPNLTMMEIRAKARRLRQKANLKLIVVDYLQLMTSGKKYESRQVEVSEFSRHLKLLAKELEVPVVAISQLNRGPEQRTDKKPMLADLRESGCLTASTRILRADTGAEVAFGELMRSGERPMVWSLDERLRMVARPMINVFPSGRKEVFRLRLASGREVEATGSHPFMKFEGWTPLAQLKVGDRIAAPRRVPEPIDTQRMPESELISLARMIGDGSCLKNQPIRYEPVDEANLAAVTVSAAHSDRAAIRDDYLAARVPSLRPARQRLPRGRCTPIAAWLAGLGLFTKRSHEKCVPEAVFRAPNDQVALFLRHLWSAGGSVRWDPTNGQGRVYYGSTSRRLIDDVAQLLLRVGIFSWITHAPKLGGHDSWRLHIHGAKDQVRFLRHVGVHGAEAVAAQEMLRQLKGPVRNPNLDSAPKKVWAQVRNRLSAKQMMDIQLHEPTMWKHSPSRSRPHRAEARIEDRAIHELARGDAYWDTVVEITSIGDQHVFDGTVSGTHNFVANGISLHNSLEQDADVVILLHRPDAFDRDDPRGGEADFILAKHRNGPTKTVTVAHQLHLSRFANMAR

[13] = viability of PTEN-deleted HCT116 cells – cell-based, HCT116 PTEN knockout, dose response (AID 1047); assay type: functional;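 also: HCT116 colon tumor cells with PTEN knocked out; cells exposed to compound for 60 hours before readout; potency for loss of cell viability measured by luminescence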
[14] = target: T5, Protein RecA (Mycobacterium tuberculosis, UniProt P9WHJ3); test: Fluorescence Cell-Free Homogeneous Dose Retest to Identify Inhibitors of RecA-Intein Splicing Activity. [Related pubchem assays (depositor defined):AID2097, AID2223, AID489010, AID492950]; assay type: functional
T5 sequence (P9WHJ3 whole entry): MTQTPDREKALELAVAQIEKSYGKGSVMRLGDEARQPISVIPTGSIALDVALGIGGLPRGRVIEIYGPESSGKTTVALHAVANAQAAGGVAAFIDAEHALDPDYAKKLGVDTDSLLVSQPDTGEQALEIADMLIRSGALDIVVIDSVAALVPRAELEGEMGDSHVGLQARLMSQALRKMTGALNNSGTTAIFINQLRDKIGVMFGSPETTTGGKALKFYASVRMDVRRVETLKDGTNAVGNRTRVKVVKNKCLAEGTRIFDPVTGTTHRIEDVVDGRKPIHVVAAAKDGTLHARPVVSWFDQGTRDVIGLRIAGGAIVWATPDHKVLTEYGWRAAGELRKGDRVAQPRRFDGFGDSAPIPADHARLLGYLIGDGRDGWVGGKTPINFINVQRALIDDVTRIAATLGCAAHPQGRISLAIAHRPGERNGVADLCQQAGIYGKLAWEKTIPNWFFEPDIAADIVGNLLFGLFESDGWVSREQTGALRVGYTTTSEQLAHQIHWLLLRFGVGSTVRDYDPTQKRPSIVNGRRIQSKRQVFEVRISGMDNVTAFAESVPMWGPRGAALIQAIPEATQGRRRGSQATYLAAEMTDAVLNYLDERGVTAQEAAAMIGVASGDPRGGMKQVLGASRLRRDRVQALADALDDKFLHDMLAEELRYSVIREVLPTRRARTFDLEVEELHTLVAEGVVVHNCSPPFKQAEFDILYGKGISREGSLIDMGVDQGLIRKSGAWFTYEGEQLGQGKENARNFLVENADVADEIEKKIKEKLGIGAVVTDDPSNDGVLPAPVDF

Sequence of Peroxisome proliferator-activated receptor gamma/Nuclear receptor coactivator 1 (P37231 whole entry): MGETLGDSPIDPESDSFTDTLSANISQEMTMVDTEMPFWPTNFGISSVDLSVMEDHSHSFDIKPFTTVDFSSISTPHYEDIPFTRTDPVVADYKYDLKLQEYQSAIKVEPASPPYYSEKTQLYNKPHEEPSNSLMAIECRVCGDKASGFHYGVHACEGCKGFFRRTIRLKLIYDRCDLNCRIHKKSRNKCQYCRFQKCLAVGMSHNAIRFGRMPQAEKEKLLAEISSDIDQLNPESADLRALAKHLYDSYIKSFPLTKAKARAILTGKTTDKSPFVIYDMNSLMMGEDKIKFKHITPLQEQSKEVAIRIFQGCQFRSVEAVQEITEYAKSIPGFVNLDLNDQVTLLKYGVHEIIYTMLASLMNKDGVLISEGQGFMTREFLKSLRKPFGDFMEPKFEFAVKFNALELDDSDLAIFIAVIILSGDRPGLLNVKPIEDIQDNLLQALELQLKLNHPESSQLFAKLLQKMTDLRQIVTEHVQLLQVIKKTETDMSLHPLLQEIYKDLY
Sequence of Peroxisome proliferator-activated receptor gamma/Nuclear receptor coactivator 1 (Q15788 whole entry, further chain): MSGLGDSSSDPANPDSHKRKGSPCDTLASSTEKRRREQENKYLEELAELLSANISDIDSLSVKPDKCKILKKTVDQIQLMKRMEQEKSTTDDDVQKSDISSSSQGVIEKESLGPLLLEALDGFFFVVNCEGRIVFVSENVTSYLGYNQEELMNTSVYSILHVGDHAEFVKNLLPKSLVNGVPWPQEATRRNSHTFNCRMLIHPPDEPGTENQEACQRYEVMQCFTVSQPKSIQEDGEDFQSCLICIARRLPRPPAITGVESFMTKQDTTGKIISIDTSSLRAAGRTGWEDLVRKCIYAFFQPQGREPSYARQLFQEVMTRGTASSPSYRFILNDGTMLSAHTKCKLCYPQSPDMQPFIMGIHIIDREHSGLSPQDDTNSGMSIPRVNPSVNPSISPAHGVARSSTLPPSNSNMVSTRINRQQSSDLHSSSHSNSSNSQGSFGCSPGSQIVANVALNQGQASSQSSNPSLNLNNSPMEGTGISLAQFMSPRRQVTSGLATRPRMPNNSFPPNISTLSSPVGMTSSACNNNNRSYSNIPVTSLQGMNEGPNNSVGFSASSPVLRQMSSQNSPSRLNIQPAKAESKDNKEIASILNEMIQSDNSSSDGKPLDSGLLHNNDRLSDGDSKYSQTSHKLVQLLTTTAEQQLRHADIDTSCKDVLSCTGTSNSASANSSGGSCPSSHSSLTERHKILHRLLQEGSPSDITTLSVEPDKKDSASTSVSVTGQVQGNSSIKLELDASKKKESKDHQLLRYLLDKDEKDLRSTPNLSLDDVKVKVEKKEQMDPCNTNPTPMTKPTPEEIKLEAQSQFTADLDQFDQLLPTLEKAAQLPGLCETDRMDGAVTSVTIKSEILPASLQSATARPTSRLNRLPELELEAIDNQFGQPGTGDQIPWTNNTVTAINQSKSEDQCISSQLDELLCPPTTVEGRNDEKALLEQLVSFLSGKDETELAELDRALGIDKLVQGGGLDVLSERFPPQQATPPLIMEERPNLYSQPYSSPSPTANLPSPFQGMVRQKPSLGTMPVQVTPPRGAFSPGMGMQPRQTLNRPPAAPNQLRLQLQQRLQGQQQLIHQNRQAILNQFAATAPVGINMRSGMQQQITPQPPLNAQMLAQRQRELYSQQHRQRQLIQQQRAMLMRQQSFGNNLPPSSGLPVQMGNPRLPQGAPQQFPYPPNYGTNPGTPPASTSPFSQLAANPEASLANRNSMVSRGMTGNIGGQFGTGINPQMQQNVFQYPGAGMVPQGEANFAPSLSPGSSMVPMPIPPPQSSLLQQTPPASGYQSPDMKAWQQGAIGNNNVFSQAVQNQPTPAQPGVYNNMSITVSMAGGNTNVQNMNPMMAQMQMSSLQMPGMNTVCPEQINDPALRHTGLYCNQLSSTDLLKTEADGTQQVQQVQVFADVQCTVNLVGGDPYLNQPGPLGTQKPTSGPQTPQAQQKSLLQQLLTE
Sequence of Peroxisome proliferator-activated receptor gamma/Nuclear receptor coactivator 3 (P37231 whole entry): as the sequence (P37231 whole entry) above
Sequence of Peroxisome proliferator-activated receptor gamma/Nuclear receptor coactivator 3 (Q9Y6Q9 whole entry, further chain): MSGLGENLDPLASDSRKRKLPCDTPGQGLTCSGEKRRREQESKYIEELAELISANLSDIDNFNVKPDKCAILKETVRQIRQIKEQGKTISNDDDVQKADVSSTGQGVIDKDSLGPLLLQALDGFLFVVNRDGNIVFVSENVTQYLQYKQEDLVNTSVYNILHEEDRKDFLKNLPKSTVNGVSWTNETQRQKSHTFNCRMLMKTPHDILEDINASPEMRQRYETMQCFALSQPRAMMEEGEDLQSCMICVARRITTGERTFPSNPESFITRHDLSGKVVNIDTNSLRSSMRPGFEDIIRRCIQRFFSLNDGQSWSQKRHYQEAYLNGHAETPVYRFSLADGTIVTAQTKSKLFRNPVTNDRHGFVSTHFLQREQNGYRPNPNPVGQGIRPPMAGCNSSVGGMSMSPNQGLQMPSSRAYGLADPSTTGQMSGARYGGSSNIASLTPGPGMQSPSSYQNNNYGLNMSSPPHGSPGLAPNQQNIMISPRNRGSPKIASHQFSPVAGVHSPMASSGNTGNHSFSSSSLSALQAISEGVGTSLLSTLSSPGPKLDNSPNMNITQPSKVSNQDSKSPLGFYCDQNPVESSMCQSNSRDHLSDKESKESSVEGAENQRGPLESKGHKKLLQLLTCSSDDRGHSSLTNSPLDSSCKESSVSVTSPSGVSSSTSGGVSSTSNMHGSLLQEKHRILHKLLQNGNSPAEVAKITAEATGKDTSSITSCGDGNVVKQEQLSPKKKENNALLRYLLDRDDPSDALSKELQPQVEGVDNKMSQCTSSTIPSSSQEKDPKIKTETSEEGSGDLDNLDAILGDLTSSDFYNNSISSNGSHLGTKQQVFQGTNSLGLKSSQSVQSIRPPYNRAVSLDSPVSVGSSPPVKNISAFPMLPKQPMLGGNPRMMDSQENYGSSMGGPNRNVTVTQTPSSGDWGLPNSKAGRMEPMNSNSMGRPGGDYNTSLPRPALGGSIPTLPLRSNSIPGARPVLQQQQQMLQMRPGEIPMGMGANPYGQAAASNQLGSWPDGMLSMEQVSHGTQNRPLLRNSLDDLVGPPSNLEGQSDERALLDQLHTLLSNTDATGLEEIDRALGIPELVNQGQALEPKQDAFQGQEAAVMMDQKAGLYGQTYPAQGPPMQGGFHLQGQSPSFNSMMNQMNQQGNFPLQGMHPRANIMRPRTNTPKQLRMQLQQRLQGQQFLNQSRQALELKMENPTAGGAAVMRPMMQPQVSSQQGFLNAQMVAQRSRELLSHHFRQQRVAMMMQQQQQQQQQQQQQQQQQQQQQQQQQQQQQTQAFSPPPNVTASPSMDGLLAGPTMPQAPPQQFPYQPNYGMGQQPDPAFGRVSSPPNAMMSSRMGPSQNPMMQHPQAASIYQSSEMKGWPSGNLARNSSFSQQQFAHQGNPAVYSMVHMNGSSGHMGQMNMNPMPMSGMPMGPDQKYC
T3 sequence (P11940 whole entry): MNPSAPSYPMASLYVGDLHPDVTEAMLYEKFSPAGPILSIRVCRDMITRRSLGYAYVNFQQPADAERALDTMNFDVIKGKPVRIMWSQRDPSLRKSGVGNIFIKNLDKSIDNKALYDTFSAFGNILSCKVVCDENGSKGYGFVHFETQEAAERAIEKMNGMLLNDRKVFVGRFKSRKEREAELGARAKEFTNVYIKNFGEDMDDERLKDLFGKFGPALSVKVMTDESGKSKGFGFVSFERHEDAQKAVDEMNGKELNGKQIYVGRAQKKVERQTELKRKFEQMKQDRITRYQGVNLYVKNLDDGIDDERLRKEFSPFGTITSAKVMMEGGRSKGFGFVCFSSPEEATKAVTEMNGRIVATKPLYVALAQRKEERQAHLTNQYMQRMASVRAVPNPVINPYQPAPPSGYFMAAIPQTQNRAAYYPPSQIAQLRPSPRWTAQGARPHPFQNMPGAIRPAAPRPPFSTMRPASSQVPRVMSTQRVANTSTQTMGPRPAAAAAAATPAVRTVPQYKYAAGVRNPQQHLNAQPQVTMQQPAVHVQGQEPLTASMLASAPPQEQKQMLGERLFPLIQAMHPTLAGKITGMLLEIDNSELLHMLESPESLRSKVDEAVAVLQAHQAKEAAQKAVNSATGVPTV
Sequence of FAD-linked sulfhydryl oxidase ALR (P55789 whole entry): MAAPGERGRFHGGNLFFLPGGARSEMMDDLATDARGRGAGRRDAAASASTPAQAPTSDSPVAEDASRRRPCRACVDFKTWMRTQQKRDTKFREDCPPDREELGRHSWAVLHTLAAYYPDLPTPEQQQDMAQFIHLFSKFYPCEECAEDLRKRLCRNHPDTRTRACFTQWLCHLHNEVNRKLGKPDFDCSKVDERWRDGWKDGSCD

In the case of COc1ccccc1CN(C)C(=O)c1ccc2c(c1)NC(=O)CS2, the EC50 [1] is reported as > 79.4 µM (not active), the EC50 [2] is reported as > 79.4 µM (not active) and the EC50 [3] is reported as > 79.4 µM (not active).
For COc1ccc(C(=O)OCC(=O)c2c(N)n(C)c(=O)n(C)c2=O)cc1OC, the IC50 [4] was > 100 µM (active).
For Cc1ccc(/C=C2\SC(N)=NC2=O)s1, the EC50 [1] was > 79.4 µM (not active), the EC50 [2] was > 79.4 µM (not active) and the EC50 [3] was > 79.4 µM (not active).
With Cc1ccc(-n2c(C)cc(C(=O)OCC(=O)N(CC(C)C)C3CCS(=O)(=O)C3)c2C)cc1 (stereo not given) the IC50 [5] was > 100 µM (active) and the IC50 [4] was > 100 µM (active).
With C[C@]12CC[C@@H]3c4ccc(O)cc4[C@@H](O)C[C@H]3[C@@H]1CC[C@@H]2O the EC50 [6] was 12.7 µM (active).
With COc1ccc(S(=O)(=O)Cc2ccc(C(=O)N3CCN(c4ccccc4)CC3)o2)cc1 the AC50 [7] was 19.1 µM (active), the IC50 [5] was > 100 µM (active) and the IC50 [4] was > 100 µM (active).
With O=[N+]([O-])c1c(NCCCO)cc(SCc2ccco2)c2nonc12 the IC50 [8] was > 66 µM (inactive), the EC50 [9] was 18 µM (active) and the CC50 [10] was > 40 µM (active). For the same molecule, the IC50 [11] was > 66 µM (inactive), the AC50 [12] was 57.7 µM (active) and the EC50 [13] was 27.1 µM (active). For the same molecule, the EC50 [14] was 5.64 µM (active).
